Reference: patent US20170281575A1, “BLT2 AGONISTS FOR THE TREATMENT OF PAIN” (FRAUNHOFER-GESELLSCHAFT ZUR FÖERDERUNG DER ANGEWANDTEN …, priority 2014, published 2017)

Legend:
TRPV1 = assay: Calcium imaging of capsaicin double-stimulated DRG neurons (TRPV1 sensitization); assay type: cell-based, murine; details: for effect on TRPV1 sensitization by LTB4 (100 nM or 1 μM), FIG. 3 legend: U73502 1 μM; for effect on TRPV1 sensitization by LTB4 (100 nM or 1 μM), FIG. 3 legend / effect on TRPV1 sensitization induced by 100 nM LTB4: CAY10583 400 nM; for effect on TRPV1 sensitization induced by 100 nM LTB4: U75302 1 μM, 2 minute pretreatment
Method: (A) DRG neurons were double stimulated with capsaicin (200 nM, 15 s each) and incubated with either vehicle or LTB4 (100 nM) for two minutes prior to the second capsaicin stimulation. (B) Dose-dependent difference in ratio between the first and the second capsaicin response using the same protocol as described in (A). Data represent the mean±SEM of the following number of neurons (n=20-86); ANOVA Kruskal-Wallis test; Dunn's multiple comparisons test *p<0.05, ****p<0.0001 student's t-test.
FIG. 3: BLT1 mediates TRPV1-sensitization and BLT2 mediates TRPV1-desensitization by LTB4. (A) DRG neurons were double stimulated with capsaicin (200 nM, 15 s each) and incubated with either vehicle or the indicated compounds for two minutes prior to the second capsaicin stimulation. […] Data represent mean±SEM 20-105 cells. ANOVA Kruskal-Wallis test; Dunn's multiple comparisons test *p<0.05, **p<0.01, ****p<0.0001 student's t-test; n.s. not significant.
FIG. 4: BLT2 activation inhibits […] by EP4 and Bradykinin. (A) DRG neurons were double stimulated with capsaicin (200 nM, 15 s each) and incubated with either the EP4 agonist ONOae329 (500 nM) or with ONOae329 and CAY10583 (400 nM) together for two minutes prior to the second capsaicin stimulation. (B) Difference in ratio between the first and the second capsaicin response using the same protocol as described in panel A. Data represent the mean±SEM of the following number of neurons: 52 (vehicle), 109 (ONOae329), 106 (ONOae329+CAY10583); One-Way ANOVA, Dunn's multiple comparisons test; **p<0.0096. (C+D) same as panel A+B except that 500 nM bradykinin was used for TRPV1 sensitization. Data represent the mean±SEM of the following number of neurons: 33 (vehicle), 83 (bradykinin), 93 (bradykinin+CAY10583); One-Way ANOVA, Holm-Sidak's multiple comparisons test; *p=0.0126
Murine DRGs were dissected from spinal segments and directly transferred to ice cold HBSS with CaCl2 and MgCl2 (Invitrogen, Carsbad, Calif., USA). Next, isolated DRGs were incubated with collagenase/dispase (500 U/ml Collagenase; 2.5 U/ml Dispase) in neurobasal medium containing L-glutamine [2 mM] penicillin (100 U/ml), streptomycin (100 μg/ml), B-27 and gentamicin (50 μg/ml) (all from Invitrogen, Carlsbad, Calif., USA) at 37° C. for 75 min. After removal of the collagenase/dispase-solution, cells were washed twice with neurobasal medium containing 10% FCS and incubated for 10 min with 0.05% trypsin (Invitrogen, Carlsbad, Calif., USA). The washing steps were repeated and the cells were mechanically dissociated with a 1 ml Gilson pipette. Finally, the neurons were plated on poly-l-lysine (Sigma, Deisenhofen, Germany) coated glass cover slips and incubated with neurobasal medium containing L-glutamine [2 mM] penicillin (100 U/ml), streptomycin (100 μg/ml), B-27 and gentamicin (50 μg/ml) over night until assessment by calcium imaging.
Calcium-Imaging experiments were performed as published previously. Briefly, Leica Calcium-imaging setup was used, consisting of a Leica DMI 4000 b inverted microscope equipped with a DFC360 FX (CCD-) camera, Fura-2 filters and an N-Plan 10×/0.25 Ph1 objective (all from Leica Microsystems, Wetzlar, Germany). Images were taken every 2 seconds and processed with the LAS AF-software. For each experiment the inventors chose an area with large cell numbers and monitored 40-110 cells simultaneously. Calcium-Imaging experiments were performed using DRG-neurons 24-48 hours after preparation. […]

mice = assay: Thermal pain thresholds after intraplantar injection (Hargreaves, radiant heat); assay type: in vivo; details: CAY10583 10 μl, 5 μM intraplantarly, compared to vehicle
Method: FIG. 5: BLT2 activation decreases thermal pain thresholds in mice. CAY10583 (10 μl, 5 μM) or vehicle was administered intraplantarly. Thermal thresholds were determined at the indicated time points. Data are presented as mean±S.E.M. of 6 animals. Two way ANOVA/Bonferroni *P<0.05, **P<0.005, ****P<0.0005.
All animal experiments were performed according to the recommendations in the Guide for the Care and Use of Laboratory Animals of the National Institutes of Health and approved by the local Ethics Committees for Animal Research (Darmstadt). For all behavioral experiments the inventors used only 6-12 weeks old male C57BL/6N mice purchased from commercial breeding companies (Charles River, Sulzfeld, Germany, Janvier, Le Geneset-Saint-Isle, FR). To compare mechanical thresholds the inventors used age and sex matched littermates as control.
For the determination of mechanical allodynia or thermal hypersensitivity, mice were kept in test cages on an elevated grid for at least 2 hours to allow accommodation. […] The non-injected and injected paws were measured alternately in intervals of 5-10 min. […]

[1] = DRG neurons, capsaicin 200 nM, LY2552833 10 μM

## CCCCC(=O)N(Cc1ccc(-c2ccccc2C(=O)O)cc1)c1ccccc1 [CAY10583, 4′-[[(1-oxopentyl)phenylamino]methyl]-[1,1′-biphenyl]-2-carboxylic acid]
TRPV1; DRG neurons, 500 nM bradykinin with CAY10583 400 nM
  effect on bradykinin-induced sensitization of TRPV1 through PKC: significantly decreased
TRPV1; DRG neurons, LY2552833 10 μM
  effect on TRPV1 sensitization by LTB4 (100 nM or 1 μM), FIG. 3 legend: reduced
TRPV1; DRG neurons, capsaicin 200 nM, CAY10583 400 nM alone
  effect by itself on capsaicin-induced TRPV1 activation: no effect
TRPV1; [1]
  effect on TRPV1 sensitization induced by 100 nM LTB4: abolished
TRPV1; murine DRG neurons, ONOae329 500 nM together with CAY10583 400 nM
  effect on ONOae329-induced TRPV1 sensitization: abolished
mice
  thermal pain thresholds: significantly increase

## CCCCC/C=C\C[C@@H](O)/C=C/C=C/C=C\[C@@H](O)CCCC(=O)O [LTB4, Leucotriene (LT) B4]
TRPV1; DRG neurons, capsaicin 200 nM double stimulation
  TRPV1 sensitization in DRG neurons, dose dependence, FIG. 1 legend: dose dependently sensitizes TRPV1
TRPV1; murine DRG neurons, 200-1000 nM LTB4 prior to second capsaicin stimulation
  enhanced response (TRPV1 sensitization) at higher LTB4 concentrations: reduced
TRPV1; murine DRG neurons, preincubation with 100 nM LTB4 for two minutes prior to second capsaicin (200 nM) stimulation
  capsaicin-induced intracellular calcium increases: doubled

## CCCCC/C=C\C[C@@H](O)/C=C/c1cccc(C[C@@H](O)CCCCO)n1 [U75302, 6-(6-(3R-hydroxy-1E,5Z-undecadien-1-yl)-2-pyridinyl)-1,5S-hexanediol]
TRPV1; DRG neurons, LY2552833 10 μM
  effect on TRPV1 sensitization by LTB4 (100 nM or 1 μM), FIG. 3 legend: reduced
TRPV1; [1]
  effect on TRPV1 sensitization induced by 100 nM LTB4: able to abolish

## CCc1cc(C(C)=O)c(O)cc1OCCCCCC(C)(C)c1nn[nH]n1 [LY2552833]
TRPV1; DRG neurons, LY2552833 10 μM
  effect on TRPV1 sensitization by LTB4 (100 nM or 1 μM), FIG. 3 legend: increases TRPV1 sensitization
TRPV1; [1]
  effect on TRPV1 sensitization by 1000 nM LTB4: increased
  effect on TRPV1 sensitization induced by 100 nM LTB4: no significant effect

## COCc1ccccc1CC[C@H](O)/C=C/[C@H]1[C@H](O)CC(=O)[C@@H]1SCCCSCC(=O)O [ONOae329]
TRPV1; murine DRG neurons, pretreatment with ONOae329 500 nM
  sensitization of TRPV1 responses to capsaicin: strong sensitization
